Data published in patent publication US9133180B2, “Aurora and FLT3 kinases modulators” (SAREUM LIMITED, priority 2012, dated 2015).

Experiments:
[1] = tested on: HCT-116; assay: Anti-proliferative activity, Alamar Blue assay; format: cell-based; conditions: Homo sapiens, 96 h exposure, read-out: HCT116 96 Hrs IC50
Procedure: The anti-proliferative activities of compounds of the invention are determined by measuring the ability of the compounds to inhibit the growth of the colorectal cancer derived cell-line HCT-116. Inhibition of cell growth is measured using the Alamar Blue assay (Nociari et al., Journal of Immunological Methods (1998) 213, 157-167). The method is based on the ability of viable cells to reduce resazurin to its fluorescent product resorufin. For each proliferation assay cells are plated onto 96 well plates and allowed to recover for 16 hours prior to the addition of inhibitor compounds for a further 96 hours. At the end of the incubation period 10% (v/v) Alamar Blue is added and incubated for a further 6 hours prior to determination of fluorescent product at Excitation 535 nm and Emission 590 nm. All cell lines are obtained from ECACC (European Collection of cell Cultures).
The activities of the compounds of the invention against the human colorectal cancer cell line HCT-116 are shown the in the table below. The column headed HCT-116 96 Hrs refers to the concentration of compound required to reduce the proliferation of HCT-116 cells by 50% following a 96 h period of exposure. The column headed [Polyploidy] refers to the lowest concentration of compound required to produce a distinct polyploid phenotype, believed to be due to Aurora B inhibition.

[2] = Caco-2 permeability assay; format: in vitro ADME; conditions: human; for Papp A→B: A2B, read-out: Caco2 A2B Papp; for Papp B→A: B2A, read-out: Caco2 B2A Papp
Procedure: The ability of a compound to be taken up and retained by a cell can be measured by carrying out permeability studies using Caco-2 cells.
Compounds of the present invention were therefore tested in a standard Caco-2 assay and the rate of flow of the compounds into and out of the cells was determined.
In the table, the column headed “Caco-2 A2B” indicates the rate at which compound flows into the cells and the column Caco-2 B2A indicates the rate at which compound flows out of the cells. The “Efflux Ratio” is the ratio of Caco-2 B2A:Caco-2 A2B.

[3] = tested on: CCRF-CEM/VCR; assay: CellTiter-Blue assay, haematological cell line; format: cell-based; conditions: Homo sapiens, 96 h; CCRF-CEM/VCR (ALL), four days treatment
Procedure: (§1) The compounds of Examples 2 and 7 were tested against a range of human haematological cell lines using the CellTiter-Blue® assay (#G8081, Promega) according to the manufacturer's instructions. Cells were harvested from exponential phase cultures, counted and plated in 96 well flat-bottom microtiter plates at a cell density of 20,000-90,000 cells/well. After a 24 h recovery period to allow the cells to resume exponential growth, 10 μl of culture medium (four control wells/plate) or of culture medium with test compound were added. The compounds were applied in duplicates at ten concentrations and treatment continued for four days. After treatment of cells, 10 μl/well CellTiter-Blue® reagent was added. Following an incubation period of up to four hours, fluorescence (FU) was measured by using the EnVision Xcite multilabel reader (excitation λ=531 nm, emission λ=615 nm). The compounds were tested in two to four independent experiments for each cell line.

[4] = tested on: HUT-78; assay: CellTiter-Blue assay, haematological cell line; format: cell-based; conditions: Homo sapiens, HuT78, 96 h; HUT-78 (NHL), four days treatment
Procedure: as §1

[5] = tested on: IM-9; assay: CellTiter-Blue assay, haematological cell line; format: cell-based; conditions: Homo sapiens, 96 h; IM-9 (MM), four days treatment
Procedure: as §1

[6] = tested on: JURKAT; assay: CellTiter-Blue assay, haematological cell line; format: cell-based; conditions: Homo sapiens, 96 h; JURKAT (ALL), four days treatment
Procedure: as §1

[7] = tested on: K-562; assay: CellTiter-Blue assay, haematological cell line; format: cell-based; conditions: Homo sapiens, K562, 96 h; K-562 (CML), four days treatment
Procedure: as §1

[8] = tested on: KM-H2; assay: CellTiter-Blue assay, haematological cell line; format: cell-based; conditions: Homo sapiens, 96 h; KM-H2 (HL), four days treatment
Procedure: as §1

[9] = tested on: L-363; assay: CellTiter-Blue assay, haematological cell line; format: cell-based; conditions: Homo sapiens, 96 h; L-363 (MM), four days treatment
Procedure: as §1

[10] = tested on: MEG-01; assay: CellTiter-Blue assay, haematological cell line; format: cell-based; conditions: Homo sapiens, 96 h; MEG-01 (CML), four days treatment
Procedure: as §1

[11] = tested on: MOLT-4; assay: CellTiter-Blue assay, haematological cell line; format: cell-based; conditions: Homo sapiens, 96 h; MOLT-4 (ALL), four days treatment
Procedure: as §1

[12] = tested on: NCI-H929; assay: CellTiter-Blue assay, haematological cell line; format: cell-based; conditions: Homo sapiens, 96 h; NCI-H929 (MM), four days treatment
Procedure: as §1

[13] = tested on: RAJI; assay: CellTiter-Blue assay, haematological cell line; format: cell-based; conditions: Homo sapiens, 96 h; RAJI (NHL), four days treatment
Procedure: as §1

[14] = tested on: U-937; assay: CellTiter-Blue assay, haematological cell line; format: cell-based; conditions: Homo sapiens, 96 h; U-937 (NHL), four days treatment
Procedure: as §1

[15] = tested on: MV4-11 xenograft tumors; assay: MV4-11 xenograft study in nude mice; format: in vivo, Balb/c nude mouse; conditions: 4 cycles; for tumour inhibitory rate (IR): 5 days on, 2 day off, tumour weight at end point
Source text: The in vivo antitumour activity of compounds of the invention was investigated by examining the effect of the compounds of Examples 2 and 7 on tumour growth in a nude mouse xenograft model of the MV4-11 cancer cell line.
MV4-11 cell line (ATCC, USA); RPMI 1640 medium (Invitrogen, USA); FBS (Invitrogen, Australia); Balb/c nude mouse (Slac Laboratory Animal Co., Ltd., Shanghai, China): female, 18-22 g; HP-6-CD (Sigma, USA).
A total of 52 female nude mice were used. The mice were allowed 3 days of acclimatization period before starting the experiment. Mice were implanted subcutaneously (s.c.) with 200 μl of 1×10^7MV4-11 tumour cells in 50% Matrigel in the right flank at the beginning of the study. When tumours reached an average volume of 100-150 mm^3, 32 mice out of the 52 were selected based on tumour volume, and randomly assigned to 4 groups prior to dosing. Each treatment group consisted of 8 tumour-bearing animals (n=8/group).
A comparison group of mice were treated with cytarabine once daily for 5 days on, 2 days off, for 4 cycles.
Mice were weighed at each dosing and the tumour sizes recorded twice each week. Mice were observed closely for any overt signs of adverse, treatment-related side effects and these were recorded if and when they were observed.
The tumour size was measured twice weekly in two dimensions using calipers, and the volume was expressed in mm^3 using the formula: V=0.5 a×b^2 where a and b were the long and short diameters of the tumour, respectively.
Mice were euthanized by CO2 exposure after 4-cycle dose. The tumour volume, weight of dissected tumours, and the mouse body weight were measured and recorded. The tumour inhibitory rate (IR) was calculated by the formula IR=(WV−WT)/WV×100%.
The differences in tumour size between the groups were analyzed for significance using the unpaired two-tailed Student's t-test. P<0.05 was considered to be statistically significant.

| Structure (SMILES) | IC50 [1] | Papp A→B [2] | Papp B→A [2] | efflux ratio ([2]; B2A:A2B, read-out: Caco2 Efflux ratio) | IC50 [3] | IC50 [4] | IC50 [5] | IC50 [6] | IC50 [7] | IC50 [8] | IC50 [9] | IC50 [10] | IC50 [11] | IC50 [12] | IC50 [13] | IC50 [14] | effect on tumour growth (tumour volume) ([15]; 20 mg/kg IV BID) | tumour inhibitory rate (IR) ([15]; 20 mg/kg IV BID) | effect on tumour growth (tumour volume) ([15]; 30 mg/kg IV BID) | tumour inhibitory rate (IR) ([15]; 30 mg/kg IV BID) |
| --- | --- | --- | --- | --- | --- | --- | --- | --- | --- | --- | --- | --- | --- | --- | --- | --- | --- | --- | --- | --- |
| Cc1ccc2[nH]ccc2c1-c1nc(C(N)=O)c(-c2ccc(N3CCNC(C)(C)C3)cc2)o1 [Example 2, 2-(5-Methyl-1H-Indol-4-yl)-5-[4-(3,3-dimethyl-piperazin-1-yl)-phenyl]-oxazole-4-carboxylic acid amide] | 0.074 µM | 19.8 nm/s | 99.1 nm/s | 4.99 | 0.458 µM | 0.138 µM | 0.07 µM | 0.091 µM | 0.326 µM | 0.189 µM | 0.121 µM | 0.633 µM | 0.048 µM | 0.852 µM | 2.85 µM | 0.094 µM | completely inhibited the tumor growth | 98.13% | – | – |
| Cc1cc(F)c2[nH]ccc2c1-c1nc(C(N)=O)c(-c2ccc(N3CCNC(C)(C)C3)cc2)o1 [Example 7, 2-(5-Methyl-7-Fluoro-1H-Indol-4-yl)-5-[4-(3,3-dimethyl-piperazin-1-yl)-phenyl]-oxazole-4-carboxylic acid amide] | 0.12 µM | 6.83 nm/s | 22.6 nm/s | – | 0.239 µM | 0.123 µM | 0.07 µM | 0.093 µM | 0.219 µM | 0.137 µM | 0.104 µM | 0.468 µM | 0.045 µM | 1.4 µM | 1.8 µM | 0.155 µM | – | – | completely inhibited the tumor growth | 98.24% |
